Patent US9296745B2, “Diacylglycerol acyltransferase 2 inhibitors” (Pfizer Inc., priority 2012, dated 2016)

Target: Human DGAT2 (hDGAT2) (Homo sapiens (Human), UniProt Q96PD7)
Assay: In vitro DGAT2 assay, IC50 determination with hDGAT2 membrane fraction
Format: biochemical
Conditions: geometric mean; background for complete inhibition of DGAT2 obtained with 50 μM (1R,2R)-2-({3′-Fluoro-4′-[(6-fluoro-1,3-benzothiazol-2-yl)amino]-1,1′-biphenyl-4-yl}carbonyl)cyclopentanecarboxylic acid; read-out: DGAT2 IC50
Description: Recombinant baculovirus for the FLAG-tagged hDGAT2 was generated in SF9 insect cells using Bac-to-Bac baculovirus expression system (Invitrogen) according to the manufacturer's protocol. For the expression of hDGAT2, SF9 cells (20 L) grown in Sf900II media were infected with hDGAT2 baculovirus at a multiplicity of infection of 1 in a Wave Bioreactor System 20/50P wave bag (GE Healthcare). After 40 hours of infection, the cells were then harvested by centrifugation at 5,000×g. The cell pellets were washed by resuspending in phosphate buffered saline (PBS) and collected by centrifugation at 5,000×g. The cell paste was flash frozen in liquid N2 and stored at −80° C. until needed. All operations below were at 4° C. unless otherwise noted. The cells were resuspended in lysis buffer (50 mM Tris-HCl, pH 8.0, 250 mM sucrose) including 1 mM ethylenediaminetetraacetic acid (EDTA) and the complete protease inhibitor cocktail (Roche Diagnostics) at a ratio of 3 ml buffer per 1 g cell paste. The cells were lysed by dounce homogenizer. The cell debris was removed by centrifugation at 1,000×g for 20 min, and the supernatant was centrifuged at 100,000×g for 1 hour. The resulting pellet was rinsed three times by filling ultracentrifuge tubes to the top with ice cold PBS before decanting. The washed pellet was resuspended with gentle stirring for 1 hour in lysis buffer containing 8 mM 3-[(3-cholamidopropyl)dimethylammonio]-1-propanesulfonate (CHAPS) at a ratio of 1 mL buffer per 1 g of original cell paste and centrifuged again at 100,000×g for 1 hour. The resulting supernatant (hDGAT2 membrane fraction) was aliquotted, flash frozen in liquid N2, and stored at −80° C. until use.
To 1 μL of compounds dissolved in 100% DMSO and spotted at the bottom of each well, 5 μL of 0.04% bovine serum albumin (BSA) (fatty acid free, Sigma Aldrich) was added and the mixture was incubated at room temperature for 20 minutes. To this mixture, 10 μL of hDGAT2 membrane fraction (0.01 mg/mL) diluted in 100 mM Hepes-NaOH, pH 7.4, 20 mM MgCl2 containing 200 nM methyl arachidonyl fluorophosphonate (Cayman Chemical; dried from ethyl acetate stock solution under argon gas and dissolved in DMSO as 5 mM stock) was added. […] The reaction mixtures were incubated at room temperature for 40 min and the reactions were stopped by addition of 5 μL of 1% H3PO4. After the addition of 45 μL MicroScint-E (Perkin-Elmer), plates were sealed with Top Seal-A covers (Perkin-Elmer) and phase partitioning of substrates and products was achieved using a HT-91100 microplate orbital shaker (Big Bear Automation, Santa Clara, Calif.). Plates were centrifuged at 2,000×g for 1 min in an Allegra 6R Centrifuge (Beckman Coulter) and then were sealed again with fresh covers before reading in a 1450 Microbeta Wallac Trilux Scintillation Counter (Perkin Elmer). DGAT2 activity was measured by quantifying the generated product [^14C]tridecanoylglycerol in the upper organic phase.
Inhibitors were tested at eleven different concentrations to generate IC50 values for each compound. […] Results are reported as geometric mean IC50 values.

Sequence of Human DGAT2 (hDGAT2) (Q96PD7 whole entry): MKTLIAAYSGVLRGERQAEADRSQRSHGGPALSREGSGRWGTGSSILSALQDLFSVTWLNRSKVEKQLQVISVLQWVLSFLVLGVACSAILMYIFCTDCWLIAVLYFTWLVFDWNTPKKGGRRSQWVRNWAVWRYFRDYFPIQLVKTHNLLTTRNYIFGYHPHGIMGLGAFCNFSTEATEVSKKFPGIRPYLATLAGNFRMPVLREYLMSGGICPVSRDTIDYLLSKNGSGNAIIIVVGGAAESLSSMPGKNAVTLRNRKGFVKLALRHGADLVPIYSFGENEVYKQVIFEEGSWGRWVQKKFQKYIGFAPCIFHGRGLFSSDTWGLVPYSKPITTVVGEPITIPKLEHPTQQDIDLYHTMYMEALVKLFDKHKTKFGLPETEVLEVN

Structure (SMILES)	IC50 [nM]
O=C([C@@H]1CCCN(c2ccc3nc(-c4cccc5ccnn45)[nH]c3n2)C1)N1CCCC1 [Example 12, (R)-(1-(2-(Pyrazolo[1,5-a]pyridin-7-yl)-3H-imidazo[4,5-b]pyridin-5-yl)piperidin-3-yl)(pyrrolidin-1-yl)methanone]	54.7
N#Cc1ccc(-c2nc3ccc(N4CCC[C@@H](C(=O)N5CCCC5)C4)nc3[nH]2)cc1 [Example 13, (R)-4-(5-(3-(Pyrrolidine-1-carbonyl)piperidin-1-yl)-3H-imidazo[4,5-b]pyridin-2-yl)benzonitrile]	63.6
CC(C)(O)c1cc(-c2nc3ccc(N4CCC[C@@H](C(=O)N5CCCC5)C4)nc3[nH]2)ccn1 [Example 14, (R)-(1-(2-(2-(2-Hydroxypropan-2-yl)pyridin-4-yl)-3H-imidazo[4,5-b]pyridin-5-yl)piperidin-3-yl)(pyrrolidin-1-yl)methanone]	72.8
O=C([C@@H]1CCCN(c2ccc3nc(-c4ccnc(NC5CC5)n4)[nH]c3n2)C1)N1CCCC1 [Example 15, (R)-(1-(2-(2-(Cyclopropylamino)pyrimidin-4-yl)-3H-imidazo[4,5-b]pyridin-5-yl)piperidin-3-yl)(pyrrolidin-1-yl)methanone]	89.6
N#Cc1cncc(-c2nc3ccc(N4CCC[C@@H](C(=O)N5CCCC5)C4)nc3[nH]2)c1 [Example 16, (R)-5-(5-(3-(Pyrrolidine-1-carbonyl)piperidin-1-yl)-3H-imidazo[4,5-b]pyridin-2-yl)nicotinonitrile]	102
Cc1nc(-c2nc3ccc(N4CCC[C@@H](C(=O)N5CCCC5)C4)nc3[nH]2)cs1 [Example 17, (R)-(1-(2-(2-Methylthiazol-4-yl)-3H-imidazo[4,5-b]pyridin-5-yl)piperidin-3-yl)(pyrrolidin-1-yl)methanone]	118
O=C([C@@H]1CCCN(c2ccc3nc([C@H]4C[C@H]4c4ccccc4)[nH]c3n2)C1)N1CCCC1 [Example 18, ((R)-1-(2-((1S,2R)-2-Phenylcyclopropyl)-3H-imidazo[4,5-b]pyridin-5-yl)piperidin-3-yl)(pyrrolidin-1-yl)methanone]	196
O=C([C@@H]1CCCN(c2ccc3nc(-c4ccc5nccn5c4)[nH]c3n2)C1)N1CCCC1 [Example 19, (R)-(1-(2-(Imidazo[1,2-a]pyridin-6-yl)-3H-imidazo[4,5-b]pyridin-5-yl)piperidin-3-yl)(pyrrolidin-1-yl)methanone]	208
Cn1cc(Cl)c(-c2nc3ccc(N4CCC[C@@H](C(=O)N5CCCC5)C4)nc3[nH]2)n1 [Example 20, (R)-(1-(2-(4-Chloro-1-methyl-1H-pyrazol-3-yl)-3H-imidazo[4,5-b]pyridin-5-yl)piperidin-3-yl)(pyrrolidin-1-yl)methanone]	221
O=C([C@@H]1CCCN(c2ccc3nc(-c4ccccc4F)[nH]c3n2)C1)N1CCCC1 [Example 21, (R)-(1-(2-(2-Fluorophenyl)-3H-imidazo[4,5-b]pyridin-5-yl)piperidin-3-yl)(pyrrolidin-1-yl)methanone]	346
CC(C)(c1ccccc1)c1nc2ccc(N3CCC[C@@H](C(=O)N4CCCC4)C3)nc2[nH]1 [Example 22, (R)-(1-(2-(2-Phenylpropan-2-yl)-3H-imidazo[4,5-b]pyridin-5-yl)piperidin-3-yl)(pyrrolidin-1-yl)methanone]	357
CC(C)c1cccc(-c2nc3ccc(N4CCC[C@@H](C(=O)N5CCCC5)C4)nc3[nH]2)c1O [Example 23, (R)-(1-(2-(2-Hydroxy-3-isopropylphenyl)-3H-imidazo[4,5-b]pyridin-5-yl)piperidin-3-yl)(pyrrolidin-1-yl)methanone]	432
CC(C)(C)c1nc2ccc(N3CCC[C@@H](C(=O)N4CCCC4)C3)nc2[nH]1 [Example 24, (R)-(1-(2-tert-Butyl-3H-imidazo[4,5-b]pyridin-5-yl)piperidin-3-yl)(pyrrolidin-1-yl)methanone]	731
O=C([C@@H]1CCCN(c2ccc3nc(-c4ccnc(N5CCOCC5)n4)[nH]c3n2)C1)N1CCCC1 [Example 25, (R)-(1-(2-(2-Morpholinopyrimidin-4-yl)-3H-imidazo[4,5-b]pyridin-5-yl)piperidin-3-yl)(pyrrolidin-1-yl)methanone]	297
O=C1COc2ccc(-c3nc4ccc(N5CCC[C@@H](C(=O)N6CCCC6)C5)nc4[nH]3)cc2N1 [Example 27, (R)-6-(5-(3-(Pyrrolidine-1-carbonyl)piperidin-1-yl)-3H-imidazo[4,5-b]pyridin-2-yl)-2H-benzo[b][1,4]oxazin-3(4H)-one]	1390
O=C([C@@H]1CCCN(c2ccc3nc(C4CC4)[nH]c3n2)C1)N1CCCC1 [Example 29, (R)-(1-(2-Cyclopropyl-3H-imidazo[4,5-b]pyridin-5-yl)piperidin-3-yl)(pyrrolidin-1-yl)methanone]	4370
CS(=O)(=O)Nc1cccc(-c2nc3ccc(N4CCC[C@@H](C(=O)N5CCCC5)C4)nc3[nH]2)c1 [Example 30, (R)-N-(3-(5-(3-(Pyrrolidine-1-carbonyl)piperidin-1-yl)-3H-imidazo[4,5-b]pyridin-2-yl)phenyl)methanesulfonamide]	1400

Further lines, results first:

IC50 [nM]	Structure (SMILES)
239	CCc1cc(-c2nc3ccc(N4CCC[C@@H](C(=O)N5CCCC5)C4)nc3[nH]2)no1 [Example 32, (R)-(1-(2-(5-Ethylisoxazol-3-yl)-3H-imidazo[4,5-b]pyridin-5-yl)piperidin-3-yl)(pyrrolidin-1-yl)methanone]
97	Cc1cncc(-c2nc3ccc(N4CCC[C@@H](C(=O)N5CCCC5)C4)nc3[nH]2)c1 [Example 33, (R)-(1-(2-(5-Methylpyridin-3-yl)-3H-imidazo[4,5-b]pyridin-5-yl)piperidin-3-yl)(pyrrolidin-1-yl)methanone]
24.8	O=C([C@@H]1CCCN(c2ccc3nc(-c4ccc(OC(F)(F)F)cc4)[nH]c3n2)C1)N1CCCC1 [Example 34, (R)-Pyrrolidin-1-yl(1-(2-(4-(trifluoromethoxy)phenyl)-3H-imidazo[4,5-b]pyridin-5-yl)piperidin-3-yl)methanone]
21.2	O=C([C@@H]1CCCN(c2ccc3nc(-c4cccc(F)c4)[nH]c3n2)C1)N1CCCC1 [Example 35, (R)-(1-(2-(3-Fluorophenyl)-3H-imidazo[4,5-b]pyridin-5-yl)piperidin-3-yl)(pyrrolidin-1-yl)methanone]
20.7	COc1cccc(-c2nc3ccc(N4CCC[C@@H](C(=O)N5CCCC5)C4)nc3[nH]2)c1 [Example 36, (R)-(1-(2-(3-Methoxyphenyl)-3H-imidazo[4,5-b]pyridin-5-yl)piperidin-3-yl)(pyrrolidin-1-yl)methanone]
12.6	COc1cccc(-c2nc3ccc(N4CCC[C@@H](C(=O)N5CCCC5)C4)nc3[nH]2)n1 [Example 37, (R)-(1-(2-(6-Methoxypyridin-2-yl)-3H-imidazo[4,5-b]pyridin-5-yl)piperidin-3-yl)(pyrrolidin-1-yl)methanone]
7.81	O=C([C@@H]1CCCN(c2ccc3nc(-c4cccc(N5CCCC5)n4)[nH]c3n2)C1)N1CCCC1 [Example 38, (R)-Pyrrolidin-1-yl(1-(2-(6-(pyrrolidin-1-yl)pyridin-2-yl)-3H-imidazo[4,5-b]pyridin-5-yl)piperidin-3-yl)methanone]
6.85	O=C([C@@H]1CCCN(c2ccc3nc(-c4coc(-c5ccccc5)n4)[nH]c3n2)C1)N1CCCC1 [Example 39, (R)-(1-(2-(2-Phenyloxazol-4-yl)-3H-imidazo[4,5-b]pyridin-5-yl)piperidin-3-yl)(pyrrolidin-1-yl)methanone]
6.47	CCc1csc(-c2nc3ccc(N4CCC[C@@H](C(=O)N5CCCC5)C4)nc3[nH]2)n1 [Example 40, (R)-(1-(2-(4-Ethylthiazol-2-yl)-3H-imidazo[4,5-b]pyridin-5-yl)piperidin-3-yl)(pyrrolidin-1-yl)methanone]
4.56	O=C([C@@H]1CCCN(c2ccc3nc(-c4cccc(Cl)c4)[nH]c3n2)C1)N1CCCC1 [Example 41, (R)-(1-(2-(3-Chlorophenyl)-3H-imidazo[4,5-b]pyridin-5-yl)piperidin-3-yl)(pyrrolidin-1-yl)methanone]
